target: human TYK2 (JH2domain-pseudokinase) (Homo sapiens (Human), UniProt P29597); assay: TYK2 JH2 Domain Binding Assay (KINOMEscan, DiscoveRx); conditions: 11-point dilution, duplicate
In short: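 TYK2 JH2 (G556–D888)–NFkB DBD fusion, DNA-tagged, from HEK293 extracts (<0.1 nM) competed against immobilised biotinylated ligand for 1 h at room temperature, 0.9% DMSO. Bead-retained kinase quantified by qPCR; Kd from 11-point 3-fold series (top 30,000 nM, duplicate), Hill fit with slope −1.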

Sequence of human TYK2 (JH2domain-pseudokinase) (P29597 556-888): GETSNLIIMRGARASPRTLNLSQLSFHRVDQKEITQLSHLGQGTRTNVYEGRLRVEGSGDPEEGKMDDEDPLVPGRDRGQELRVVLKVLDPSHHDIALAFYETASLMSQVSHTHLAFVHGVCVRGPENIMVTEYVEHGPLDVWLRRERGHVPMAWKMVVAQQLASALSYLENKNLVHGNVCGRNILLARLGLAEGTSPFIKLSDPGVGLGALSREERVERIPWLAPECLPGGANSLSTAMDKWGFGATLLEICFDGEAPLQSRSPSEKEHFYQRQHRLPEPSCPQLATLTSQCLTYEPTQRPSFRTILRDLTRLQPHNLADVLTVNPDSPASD

Compound | Kd [nM]
COCc1ccc(Nc2cc(Nc3ccccc3S(C)(=O)=O)c3nc(C)[nH]c3n2)nn1 [I-521] | < 0.1
Cc1cc(-c2ccc(Nc3cc(Nc4cc5n(n4)CCOC5)nc4[nH]c(C(F)F)nc34)c(S(C)(=O)=O)c2)nn1C [I-526] | < 0.1
Cc1cc(Nc2cc(Nc3ccc([C@@H]4CCCCO4)cc3S(C)(=O)=O)c3nc(C)[nH]c3n2)nc(C)n1 [I-530] | < 0.1
CS(=O)(=O)c1ccccc1Nc1cc(Nc2ccc3c(n2)CCOC3)nc2[nH]c(C(F)F)nc12 [I-531] | < 0.1
Cc1nc2c(Nc3ccc(C4CCC(C)(C)CO4)cc3S(C)(=O)=O)cc(NC(=O)C3CC3)nc2[nH]1 (stereo not drawn) [I-536, N-(7-((4-(5,5-dimethyltetrahydro-2H-pyran-2-yl)-2-(methylsulfonyl)phenyl)amino)-2-methyl-3H-imidazo[4,5-b]pyridin-5-yl)cyclopropanecarboxamide] | < 0.1
COc1c(Nc2cc(Nc3cccc(C#N)n3)nc3[nH]c(C)nc23)cccc1-c1ncnn1C [I-539, 6-((7-((2-methoxy-3-(1-methyl-1H-1,2,4-triazol-5-yl)phenyl)amino)-2-methyl-3H-imidazo[4,5-b]pyridin-5-yl)amino)picolinonitrile] | 0.5 to 1
COc1c(Nc2cc(Nc3cccc(C#N)n3)nc3[nH]c(C)nc23)cccc1-c1nc(C)nn1C [I-542, 6-((7-((3-(1,3-dimethyl-1H-1,2,4-triazol-5-yl)-2-methoxyphenyl)amino)-2-methyl-3H-imidazo[4,5-b]pyridin-5-yl)amino)picolinonitrile] | 0.5 to 1
Cc1nc2c(Nc3ccc(C4CCCO4)cc3S(C)(=O)=O)cc(Nc3cccc(C#N)n3)nc2[nH]1 (stereo not drawn) [I-544, 6-((2-methyl-7-((2-(methylsulfonyl)-4-(tetrahydrofuran-2-yl)phenyl)amino)-3H-imidazo[4,5-b]pyridin-5-yl)amino)picolinonitrile] | 0.1 to 0.5
Cc1nc(-c2ccc(Nc3cc(NC(=O)C4CC4)nc4[nH]c(C(F)F)nc34)c(S(C)(=O)=O)c2)cs1 [I-545, N-(2-(difluoromethyl)-7-((2-(methylsulfonyl)-4-(2-methylthiazol-4-yl)phenyl)amino)-3H-imidazo[4,5-b]pyridin-5-yl)cyclopropanecarboxamide] | 0.1 to 0.5
CN=[S@@](C)(=O)c1ccccc1Nc1cc(NC(=O)C2CC2)nc2[nH]c(C)nc12 [I-549, N-(7-((2-(N,S-dimethylsulfonimidoyl)phenyl)amino)-2-methyl-3H-imidazo[4,5-b]pyridin-5-yl)cyclopropanecarboxamide] | 1 to 10
Cc1nc2c(Nc3ccc([C@@H]4CCC(C)(C)CO4)cc3S(C)(=O)=O)cc(NC(=O)C3CC3)nc2[nH]1 [I-550, (S)—N-(7-((4-(5,5-dimethyltetrahydro-2H-pyran-2-yl)-2-(methylsulfonyl)phenyl)amino)-2-methyl-3H-imidazo[4,5-b]pyridin-5-yl)cyclopropanecarboxamide] | < 0.1
Cc1nc2c(Nc3ccc([C@H]4CCC(C)(C)CO4)cc3S(C)(=O)=O)cc(NC(=O)C3CC3)nc2[nH]1 [I-551, (R)—N-(7-((4-(5,5-dimethyltetrahydro-2H-pyran-2-yl)-2-(methylsulfonyl)phenyl)amino)-2-methyl-3H-imidazo[4,5-b]pyridin-5-yl)cyclopropanecarboxamide] | 0.5 to 1
Cc1nc2c(Nc3ccc(F)cc3S(C)(=O)=O)cc(Nc3cccc(C#N)n3)nc2[nH]1 [I-553, 6-((7-((4-fluoro-2-(methylsulfonyl)phenyl)amino)-2-methyl-3H-imidazo[4,5-b]pyridin-5-yl)amino)picolinonitrile] | 0.1 to 0.5
COc1cc(-c2nn(C)cc2C)ccc1Nc1cc(NC(=O)C2CC2)nc2[nH]c(C(F)F)nc12 [I-554, N-(2-(difluoromethyl)-7-((4-(1,4-dimethyl-1H-pyrazol-3-yl)-2-methoxyphenyl)amino)-3H-imidazo[4,5-b]pyridin-5-yl)cyclopropanecarboxamide] | 1 to 10
COc1cc(-c2nn(C)cc2C)ccc1Nc1cc(NC(=O)C2CC2)nc2[nH]c(C)nc12 [I-555, N-(7-((4-(1,4-dimethyl-1H-pyrazol-3-yl)-2-methoxyphenyl)amino)-2-methyl-3H-imidazo[4,5-b]pyridin-5-yl)cyclopropanecarboxamide] | 0.5 to 1
COc1c(Nc2cc(NC(=O)C3CC3)nc3[nH]c(C)nc23)ccc(-c2nn(C)cc2C)c1F [I-557, N-(7-((4-(1,4-dimethyl-1H-pyrazol-3-yl)-3-fluoro-2-methoxyphenyl)amino)-2-methyl-3H-imidazo[4,5-b]pyridin-5-yl)cyclopropanecarboxamide] | > 10

Results, then the compound that gave them:

Kd [nM] | Compound
1 to 10 | CS(=O)(=O)c1cc([C@@H]2CCCCO2)ccc1Nc1cc(Nc2cccc(C(F)(F)F)n2)nc2[nH]c(C(F)F)nc12 [I-518, (S)-2-(difluoromethyl)-N7-(2-(methylsulfonyl)-4-(tetrahydro-2H-pyran-2-yl)phenyl)-N5-(6-(trifluoromethyl)pyridin-2-yl)-3H-imidazo[4,5-b]pyridine-5,7-diamine]
0.1 to 0.5 | Cc1cc(Nc2cc(Nc3ccc(-c4cc(C)n(C)n4)cc3S(C)(=O)=O)c3nc(C(F)F)[nH]c3n2)nc(C)n1 [I-519, 2-(difluoromethyl)-N7-(4-(1,5-dimethyl-1H-pyrazol-3-yl)-2-(methylsulfonyl)phenyl)-N5-(2,6-dimethylpyrimidin-4-yl)-3H-imidazo[4,5-b]pyridine-5,7-diamine]
0.1 to 0.5 | COCc1ccc(Nc2cc(Nc3ccccc3S(C)(=O)=O)c3nc(C(F)F)[nH]c3n2)nn1 [I-520]
0.1 to 0.5 | CS(=O)(=O)c1cc(-c2ccn(C3CCOCC3)n2)ccc1Nc1cc(NC(=O)C2CC2)nc2[nH]c(C(F)F)nc12 [I-522]
< 0.1 | Cc1nc2c(Nc3ccc(-c4ccn(C5CCOCC5)n4)cc3S(C)(=O)=O)cc(NC(=O)C3CC3)nc2[nH]1 [I-523]
0.1 to 0.5 | CCOc1ccc(Nc2cc(Nc3ccccc3S(C)(=O)=O)c3nc(C(F)F)[nH]c3n2)nc1C#N [I-524]
< 0.1 | CCOc1ccc(Nc2cc(Nc3ccccc3S(C)(=O)=O)c3nc(C)[nH]c3n2)nc1C#N [I-525]
0.1 to 0.5 | Cc1cc(Nc2cc(Nc3ccc(-c4ccn(C5CC5)n4)cc3S(C)(=O)=O)c3nc(C(F)F)[nH]c3n2)nc(C)n1 [I-527]
0.1 to 0.5 | Cc1cc(Nc2cc(Nc3ccc(-c4ccn(C5CC5)n4)cc3S(C)(=O)=O)c3nc(C)[nH]c3n2)nc(C)n1 [I-528]
< 0.1 | Cc1cc(Nc2cc(Nc3ccc([C@H]4CCCCO4)cc3S(C)(=O)=O)c3nc(C)[nH]c3n2)nc(C)n1 [I-529]
< 0.1 | Cc1nc2c(Nc3ccccc3S(C)(=O)=O)cc(Nc3ccc4c(n3)CCOC4)nc2[nH]1 [I-532]
0.1 to 0.5 | Cc1c(-c2ccc(Nc3cc(Nc4ccc(C(C)C)c(C#N)n4)nc4[nH]c(C(F)F)nc34)c(S(C)(=O)=O)c2)cnn1C [I-533]
1 to 10 | Cc1cc(C)c(-c2ccc(Nc3cc(NC(=O)C4CC4)nc4[nH]c(C(F)F)nc34)c(S(C)(=O)=O)c2)o1 [I-534]
< 0.1 | Cc1c(-c2ccc(Nc3cc(NC(=O)C4CC4)nc4[nH]c(C(F)F)nc34)c(S(C)(=O)=O)c2)cnn1C1CC1 [I-537, N-(7-((4-(1-cyclopropyl-5-methyl-1H-pyrazol-4-yl)-2-(methylsulfonyl)phenyl)amino)-2-(difluoromethyl)-3H-imidazo[4,5-b]pyridin-5-yl)cyclopropanecarboxamide]
0.5 to 1 | COc1c(Nc2cc(Nc3cccc(C#N)n3)nc3[nH]c(C(F)F)nc23)cccc1-c1ncnn1C [I-538]
0.1 to 0.5 | COc1c(Nc2cc(Nc3cccc(C#N)n3)nc3[nH]c(C)nc23)cccc1-c1cnn(C)n1 [I-540, 6-((7-((2-methoxy-3-(2-methyl-2H-1,2,3-triazol-4-yl)phenyl)amino)-2-methyl-3H-imidazo[4,5-b]pyridin-5-yl)amino)picolinonitrile]
0.5 to 1 | COc1c(Nc2cc(Nc3cccc(C#N)n3)nc3[nH]c(C(F)F)nc23)cccc1-c1nc(C)nn1C [I-541, 6-((2-(difluoromethyl)-7-((3-(1,3-dimethyl-1H-1,2,4-triazol-5-yl)-2-methoxyphenyl)amino)-3H-imidazo[4,5-b]pyridin-5-yl)amino)picolinonitrile]
1 to 10 | COc1c(Nc2cc(Nc3cccc(C#N)n3)nc3[nH]c(C)nc23)cccc1-c1nc(C)cs1 [I-543, 6-((7-((2-methoxy-3-(4-methylthiazol-2-yl)phenyl)amino)-2-methyl-3H-imidazo[4,5-b]pyridin-5-yl)amino)picolinonitrile]
1 to 10 | C#Cc1cccc(Nc2cc(Nc3ccccc3S(C)(=O)=O)c3nc(C(F)F)[nH]c3n2)n1 [I-546, 2-(difluoromethyl)-N5-(6-ethynylpyridin-2-yl)-N7-(2-(methylsulfonyl)phenyl)-3H-imidazo[4,5-b]pyridine-5,7-diamine]
< 0.1 | C#Cc1cccc(Nc2cc(Nc3ccccc3S(C)(=O)=O)c3nc(C)[nH]c3n2)n1 [I-547, N5-(6-ethynylpyridin-2-yl)-2-methyl-N7-(2-(methylsulfonyl)phenyl)-3H-imidazo[4,5-b]pyridine-5,7-diamine]
0.1 to 0.5 | CS(=O)(=O)c1cc(F)ccc1Nc1cc(Nc2cccc(C#N)n2)nc2[nH]c(C(F)F)nc12 [I-552, 6-((2-(difluoromethyl)-7-((4-fluoro-2-(methylsulfonyl)phenyl)amino)-3H-imidazo[4,5-b]pyridin-5-yl)amino)picolinonitrile]
> 10 | COc1c(Nc2cc(NC(=O)C3CC3)nc3[nH]c(C(F)F)nc23)ccc(-c2nn(C)cc2C)c1F [I-556, N-(2-(difluoromethyl)-7-((4-(1,4-dimethyl-1H-pyrazol-3-yl)-3-fluoro-2-methoxyphenyl)amino)-3H-imidazo[4,5-b]pyridin-5-yl)cyclopropanecarboxamide]
1 to 10 | COc1c(Nc2cc(Nc3cccc(C#N)n3)nc3[nH]c(C(F)F)nc23)cccc1-c1nccs1 [I-558, 6-((2-(difluoromethyl)-7-((2-methoxy-3-(thiazol-2-yl)phenyl)amino)-3H-imidazo[4,5-b]pyridin-5-yl)amino)picolinonitrile]
